pIC50: −log10 of the molar value. In brackets after ≈: the same amount, converted by molar mass. Activity calls are given as the source filed them. No cut-off for these calls is given here.
Experiments:
Enterococcus faecium [1] = test: Antibacterial activity against Enterococcus faecium C15 incubated for 24 hrs by microdilution assay; type: functional
NHDF [2] = test: Cytotoxicity against human HDF cells assessed as reduction in cell viability incubated for 7 days by CellTiter 96 aqueous one solution assay; type: functional, cell-based; settings: 168 h
Pseudomonas aeruginosa [3] = test: Bactericidal activity against Pseudomonas aeruginosa ATCC 10145 at 90 uM incubated for 24 hrs by microdilution assay; type: functional, organism-based
Acinetobacter baumannii [4] = test: Antibacterial activity against Acinetobacter baumannii ATCC 17978 at 90 uM incubated for 24 hrs by microdilution assay; type: functional, organism-based
Staphylococcus aureus [5] = test: Bactericidal activity against Staphylococcus aureus ATCC 25923 at 90 uM incubated for 24 hrs by microdilution assay; type: functional, organism-based
Klebsiella pneumoniae [6] = test: Antibacterial activity against Klebsiella pneumoniae ATCC 13883 at 90 uM incubated for 24 hrs by microdilution assay; type: functional, organism-based
Acinetobacter baumannii [7] = test: Antibacterial activity against Acinetobacter baumannii ATCC 19606 at 90 uM incubated for 24 hrs by microdilution assay; type: functional, organism-based; settings: ATCC 19606 = CIP 70.34 = JCM 6841
Staphylococcus aureus [8] = test: Bactericidal activity against Staphylococcus aureus ATCC 29247 at 90 uM incubated for 24 hrs by microdilution assay; type: functional, organism-based
Klebsiella aerogenes [9] = test: Bactericidal activity against Enterobacter aerogenes ATCC 13048 at 90 uM incubated for 24 hrs by microdilution assay; type: functional
Klebsiella pneumoniae [10] = test: Antibacterial activity against Klebsiella pneumoniae ATCC 12657 at 90 uM incubated for 24 hrs by microdilution assay; type: functional, organism-based
Pseudomonas aeruginosa [11] = test: Antibacterial activity against Pseudomonas aeruginosa ATCC 10145 at 90 uM incubated for 24 hrs by microdilution assay; type: functional, organism-based
[12] = test system: Enterobacter cloacae subsp. cloacae; test: Bactericidal activity against Enterobacter cloacae ATCC 13047 at 90 uM incubated for 24 hrs by microdilution assay; type: functional
Klebsiella pneumoniae [13] = test: Bactericidal activity against Klebsiella pneumoniae ATCC 13883 at 90 uM incubated for 24 hrs by microdilution assay; type: functional, organism-based
[14] = Selectivity ratio of IC50 for human HaCaT cells to IC50 for human HDF cells by CellTiter 96 aqueous one solution assay
Enterococcus faecium [15] = test: Antibacterial activity against Enterococcus faecium ATCC 35667 incubated for 24 hrs by microdilution assay; type: functional
Acinetobacter baumannii [16] = test: Bactericidal activity against Acinetobacter baumannii ATCC 17978 at 90 uM incubated for 24 hrs by microdilution assay; type: functional, organism-based
Pseudomonas aeruginosa [17] = test: Bactericidal activity against Pseudomonas aeruginosa ATCC 49189 at 90 uM incubated for 24 hrs by microdilution assay; type: functional, organism-based
Pseudomonas aeruginosa [18] = test: Antibacterial activity against Pseudomonas aeruginosa ATCC 49189 at 90 uM incubated for 24 hrs by microdilution assay; type: functional, organism-based
Enterococcus faecium [19] = test: Bactericidal activity against Enterococcus faecium C15 incubated for 24 hrs by microdilution assay; type: functional; settings: C15, 24 h
Enterococcus faecium [20] = test: Bactericidal activity against Enterococcus faecium ATCC 35667 incubated for 24 hrs by microdilution assay; type: functional; settings: ATCC 35667, 24 h
[21] = test system: Enterobacter cloacae subsp. cloacae; test: Antibacterial activity against Enterobacter cloacae ATCC 13047 at 90 uM incubated for 24 hrs by microdilution assay; type: functional
Staphylococcus aureus [22] = test: Antibacterial activity against Staphylococcus aureus ATCC 25923 incubated for 24 hrs by microdilution assay; type: functional
Acinetobacter baumannii [23] = test: Bactericidal activity against Acinetobacter baumannii ATCC 19606 at 90 uM incubated for 24 hrs by microdilution assay; type: functional, organism-based; settings: ATCC 19606 = CIP 70.34 = JCM 6841
HaCaT [24] = test: Cytotoxicity against human HaCaT cells assessed as reduction in cell viability incubated for 4 days by CellTiter 96 aqueous one solution assay; type: cell-based; settings: 96 h
Klebsiella pneumoniae [25] = test: Bactericidal activity against Klebsiella pneumoniae ATCC 12657 at 90 uM incubated for 24 hrs by microdilution assay; type: functional, organism-based
Staphylococcus aureus [26] = test: Antibacterial activity against Staphylococcus aureus ATCC 29247 incubated for 24 hrs by microdilution assay; type: functional
Klebsiella aerogenes [27] = test: Antibacterial activity against Enterobacter aerogenes ATCC 13048 at 90 uM incubated for 24 hrs by microdilution assay; type: functional
Enterococcus faecium [28] = test: Bactericidal activity against Enterococcus faecium ATCC 35667 at 90 uM incubated for 24 hrs by microdilution assay; type: functional, organism-based
Staphylococcus aureus [29] = test: Antibacterial activity against Staphylococcus aureus ATCC 29247 at 90 uM incubated for 24 hrs by microdilution assay; type: functional, organism-based
Staphylococcus aureus [30] = test: Antibacterial activity against Staphylococcus aureus ATCC 25923 at 90 uM incubated for 24 hrs by microdilution assay; type: functional, organism-based
NHDF [31] = test: Cytotoxicity against human HDF cells assessed as reduction in cell viability at 100 uM incubated for 7 days by CellTiter 96 aqueous one solution assay; type: functional, cell-based
Enterococcus faecium [32] = test: Bactericidal activity against Enterococcus faecium C15 at 90 uM incubated for 24 hrs by microdilution assay; type: functional, organism-based
Enterococcus faecium [33] = test: Antibacterial activity against Enterococcus faecium C15 at 90 uM incubated for 24 hrs by microdilution assay; type: functional, organism-based
HaCaT [34] = test: Cytotoxicity against human HaCaT cells assessed as reduction in cell viability at 100 uM incubated for 4 days by CellTiter 96 aqueous one solution assay; type: cell-based; settings: 96 h
Enterococcus faecium [35] = test: Antibacterial activity against Enterococcus faecium ATCC 35667 at 90 uM incubated for 24 hrs by microdilution assay; type: functional, organism-based

C[C@@H]1CC[C@]2(OC1)O[C@H]1C[C@H]3[C@@H]4CC[C@H]5C[C@H](O)C[C@@H](O[C@@H]6O[C@H](C)[C@H](O)[C@H](O)[C@H]6O)[C@]5(C)[C@H]4CC[C@]3(C)[C@H]1[C@@H]2C
MIC75 (Enterococcus faecium [1]): 43.2 µM (≈ 25 µg/mL)
pIC50 (NHDF [2]): 5.12
Activity (Pseudomonas aeruginosa [3]): inactive
Activity (Acinetobacter baumannii [4]): inactive
Activity (Staphylococcus aureus [5]): inactive
Activity (Klebsiella pneumoniae [6]): inactive
Activity (Acinetobacter baumannii [7]): inactive
Activity (Staphylococcus aureus [8]): inactive
Activity (Klebsiella aerogenes [9]): inactive
Activity (Klebsiella pneumoniae [10]): inactive
Activity (Pseudomonas aeruginosa [11]): inactive
Activity [12]: inactive
Activity (Klebsiella pneumoniae [13]): inactive
Ratio IC50 [14]: 3 - 11
MIC75 (Enterococcus faecium [15]): 43.2 µM (≈ 25 µg/mL)
Activity (Acinetobacter baumannii [16]): inactive
Activity (Pseudomonas aeruginosa [17]): inactive
Activity (Pseudomonas aeruginosa [18]): inactive
MBC (Enterococcus faecium [19]): 86.4 µM (≈ 50 µg/mL)
MBC (Enterococcus faecium [20]): 86.4 µM (≈ 50 µg/mL)
Activity [21]: inactive
MIC75 (Staphylococcus aureus [22]): 43.2 µM (≈ 25 µg/mL)
Activity (Acinetobacter baumannii [23]): inactive
pIC50 (HaCaT [24]): 4.44
Activity (Klebsiella pneumoniae [25]): inactive
MIC75 (Staphylococcus aureus [26]): 43.2 µM (≈ 25 µg/mL)
Activity (Klebsiella aerogenes [27]): inactive

C=C1CC[C@]2(OC1)O[C@H]1C[C@H]3[C@@H]4CC[C@H]5C[C@H](O)C[C@@H](O[C@@H]6O[C@H](C)[C@H](O)[C@H](O)[C@H]6O)[C@]5(C)[C@H]4CC[C@]3(C)[C@H]1[C@@H]2C
MIC75 (Enterococcus faecium [1]): 21.7 µM (≈ 12.5 µg/mL)
pIC50 (NHDF [2]): 5.08
Activity (Pseudomonas aeruginosa [3]): inactive
Activity (Acinetobacter baumannii [4]): inactive
Activity (Staphylococcus aureus [5]): inactive
Activity (Klebsiella pneumoniae [6]): inactive
Activity (Acinetobacter baumannii [7]): inactive
Activity (Staphylococcus aureus [8]): inactive
Activity (Klebsiella aerogenes [9]): inactive
Activity (Klebsiella pneumoniae [10]): inactive
Activity (Pseudomonas aeruginosa [11]): inactive
Activity [12]: inactive
Activity (Klebsiella pneumoniae [13]): inactive
Ratio IC50 [14]: 3 - 11
MIC75 (Enterococcus faecium [15]): 43.3 µM (≈ 25 µg/mL)
Activity (Acinetobacter baumannii [16]): inactive
Activity (Pseudomonas aeruginosa [17]): inactive
Activity (Pseudomonas aeruginosa [18]): inactive
MBC (Enterococcus faecium [19]): 86.4 µM (≈ 49.8 µg/mL)
MBC (Enterococcus faecium [20]): 86.4 µM (≈ 49.8 µg/mL)
Activity [21]: inactive
MIC75 (Staphylococcus aureus [22]): 21.7 µM (≈ 12.5 µg/mL)
Activity (Acinetobacter baumannii [23]): inactive
pIC50 (HaCaT [24]): 4.41
Activity (Klebsiella pneumoniae [25]): inactive
MIC75 (Staphylococcus aureus [26]): 21.7 µM (≈ 12.5 µg/mL)
Activity (Klebsiella aerogenes [27]): inactive

C=C1CC[C@]2(OC1)O[C@H]1C[C@H]3[C@@H]4CC[C@H]5C[C@@H](O)C[C@@H](O[C@@H]6OC[C@H](O)[C@H](O)[C@H]6O)[C@]5(C)[C@H]4CC[C@]3(C)[C@H]1[C@@H]2C
Activity (Enterococcus faecium [28]): inactive
Activity (Pseudomonas aeruginosa [3]): inactive
Activity (Acinetobacter baumannii [4]): inactive
Activity (Staphylococcus aureus [5]): inactive
Activity (Klebsiella pneumoniae [6]): inactive
Activity (Acinetobacter baumannii [7]): inactive
Activity (Staphylococcus aureus [8]): inactive
Activity (Klebsiella aerogenes [9]): inactive
Activity (Staphylococcus aureus [29]): inactive
Activity (Klebsiella pneumoniae [10]): inactive
Activity (Pseudomonas aeruginosa [11]): inactive
Activity (Staphylococcus aureus [30]): inactive
Activity [12]: inactive
Activity (Klebsiella pneumoniae [13]): inactive
Ratio IC50 [14]: 3 - 11
Activity (Acinetobacter baumannii [16]): inactive
Activity (Pseudomonas aeruginosa [17]): inactive
Activity (Pseudomonas aeruginosa [18]): inactive
Activity (NHDF [31]): inactive
Activity (Enterococcus faecium [32]): inactive
Activity [21]: inactive
Activity (Acinetobacter baumannii [23]): inactive
Activity (Enterococcus faecium [33]): inactive
Activity (HaCaT [34]): Not Active
Activity (Enterococcus faecium [35]): inactive
Activity (Klebsiella pneumoniae [25]): inactive
Activity (Klebsiella aerogenes [27]): inactive

C[C@@H]1CC[C@]2(OC1)O[C@H]1C[C@H]3[C@@H]4CC[C@H]5C[C@@H](O)C[C@@H](O[C@@H]6OC[C@H](O)[C@H](O)[C@H]6O)[C@]5(C)[C@H]4CC[C@]3(C)[C@H]1[C@@H]2C
Activity (Enterococcus faecium [28]): inactive
Activity (Pseudomonas aeruginosa [3]): inactive
Activity (Acinetobacter baumannii [4]): inactive
Activity (Staphylococcus aureus [5]): inactive
Activity (Klebsiella pneumoniae [6]): inactive
Activity (Acinetobacter baumannii [7]): inactive
Activity (Staphylococcus aureus [8]): inactive
Activity (Klebsiella aerogenes [9]): inactive
Activity (Staphylococcus aureus [29]): inactive
Activity (Klebsiella pneumoniae [10]): inactive
Activity (Pseudomonas aeruginosa [11]): inactive
Activity (Staphylococcus aureus [30]): inactive
Activity [12]: inactive
Activity (Klebsiella pneumoniae [13]): inactive
Ratio IC50 [14]: 3 - 11
Activity (Acinetobacter baumannii [16]): inactive
Activity (Pseudomonas aeruginosa [17]): inactive
Activity (Pseudomonas aeruginosa [18]): inactive
Activity (NHDF [31]): inactive
Activity (Enterococcus faecium [32]): inactive
Activity [21]: inactive
Activity (Acinetobacter baumannii [23]): inactive
Activity (Enterococcus faecium [33]): inactive
Activity (HaCaT [34]): Not Active
Activity (Enterococcus faecium [35]): inactive
Activity (Klebsiella pneumoniae [25]): inactive
Activity (Klebsiella aerogenes [27]): inactive

— ChEMBL document CHEMBL4414613, “Antibacterial 5α-Spirostane Saponins from the Fruit of Cordyline manners-suttoniae” (J Nat Prod, 2019)
